For 20 compounds, IC50 results are on record in patent publication US11453660B2, “Androgen receptor and glucocorticoid receptor modulators” (ONCOSTELLAE, S.L., priority 2017, dated 2022).

Some results are limits rather than exact numbers.

The target in one assay is T1, human androgen receptor (Homo sapiens, UniProt P10275, T878A).
T1 construct: endogenously expressed human androgen receptor using the LnCap prostate cancer cell line; endogenous in cells; host or cells: LNCaP prostate cancer cell line (whole cells)
T1 sequence (P10275 1-920 T878A): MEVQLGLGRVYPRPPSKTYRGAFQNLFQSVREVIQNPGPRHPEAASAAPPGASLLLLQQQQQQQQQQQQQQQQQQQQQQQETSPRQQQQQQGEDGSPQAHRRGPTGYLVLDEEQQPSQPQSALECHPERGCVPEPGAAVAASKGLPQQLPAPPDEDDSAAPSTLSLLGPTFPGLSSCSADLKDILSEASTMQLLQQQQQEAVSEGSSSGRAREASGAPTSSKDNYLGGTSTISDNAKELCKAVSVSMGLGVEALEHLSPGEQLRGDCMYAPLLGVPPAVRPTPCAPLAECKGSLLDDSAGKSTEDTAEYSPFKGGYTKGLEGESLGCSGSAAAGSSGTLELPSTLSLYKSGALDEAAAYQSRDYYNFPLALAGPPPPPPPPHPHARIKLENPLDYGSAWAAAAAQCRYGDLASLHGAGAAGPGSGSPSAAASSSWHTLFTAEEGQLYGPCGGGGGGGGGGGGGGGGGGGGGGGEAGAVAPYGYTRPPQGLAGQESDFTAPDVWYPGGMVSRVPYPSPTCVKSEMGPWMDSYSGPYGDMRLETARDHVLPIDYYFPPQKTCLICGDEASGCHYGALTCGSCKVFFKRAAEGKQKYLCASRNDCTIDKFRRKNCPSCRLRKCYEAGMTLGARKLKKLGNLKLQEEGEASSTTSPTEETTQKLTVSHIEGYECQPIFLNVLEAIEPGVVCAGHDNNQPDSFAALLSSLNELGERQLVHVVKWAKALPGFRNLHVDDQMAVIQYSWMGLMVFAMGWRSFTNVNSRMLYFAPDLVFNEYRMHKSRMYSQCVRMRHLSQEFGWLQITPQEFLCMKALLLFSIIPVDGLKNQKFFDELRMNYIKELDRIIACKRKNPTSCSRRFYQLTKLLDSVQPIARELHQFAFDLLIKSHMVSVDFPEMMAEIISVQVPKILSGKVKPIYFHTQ
Put plainly: Human Androgen Receptor Binding (radioligand binding, LnCap prostate cancer cell line). The following applies: LnCap cells, displacement of [^3H]-methyltrienolone, 2 hours at 37° C.; read-out: AR LNCaP. A digest of the protocol: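 Whole-cell displacement of [3H]-methyltrienolone from endogenous AR (T878A) in LnCap cells, in RPMI with 0.1% BSA and triamcinolone acetonide. Compounds 10 μM to 0.1 nM in 1:10 steps, 2 h at 37 °C; cells washed, SDS-lysed, bound radioactivity by scintillation counting for IC50.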

The target in assay [1] is T2, Human Glucocorticoid Receptor (Homo sapiens, UniProt P04150).
T2 construct: endogenous in cells; host or cells: cytosol from IM-9 cell line
T2 sequence (P04150 1-777): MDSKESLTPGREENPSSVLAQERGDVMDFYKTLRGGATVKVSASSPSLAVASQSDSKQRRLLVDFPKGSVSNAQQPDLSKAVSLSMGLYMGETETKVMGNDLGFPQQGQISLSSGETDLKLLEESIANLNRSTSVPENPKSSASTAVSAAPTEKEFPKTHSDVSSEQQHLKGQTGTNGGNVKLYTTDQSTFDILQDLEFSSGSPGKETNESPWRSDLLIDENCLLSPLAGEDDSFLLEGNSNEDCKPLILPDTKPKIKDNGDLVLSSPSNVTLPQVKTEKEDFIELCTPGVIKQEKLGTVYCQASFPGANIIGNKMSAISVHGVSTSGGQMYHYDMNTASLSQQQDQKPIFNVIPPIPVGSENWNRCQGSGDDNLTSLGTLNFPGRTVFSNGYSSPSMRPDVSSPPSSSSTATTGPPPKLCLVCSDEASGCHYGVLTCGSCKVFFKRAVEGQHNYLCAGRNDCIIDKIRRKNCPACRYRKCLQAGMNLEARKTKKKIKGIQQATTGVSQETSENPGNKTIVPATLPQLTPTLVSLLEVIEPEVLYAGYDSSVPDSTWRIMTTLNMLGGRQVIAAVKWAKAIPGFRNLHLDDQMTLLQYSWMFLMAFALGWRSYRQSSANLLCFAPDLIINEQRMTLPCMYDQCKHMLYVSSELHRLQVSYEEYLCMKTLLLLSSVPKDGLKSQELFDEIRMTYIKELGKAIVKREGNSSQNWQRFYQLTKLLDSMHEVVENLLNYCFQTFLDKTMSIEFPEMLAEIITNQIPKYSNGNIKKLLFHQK
Put plainly: Competition Binding in IM-9 Human Glucocorticoid Receptor (GR IM-9). The following applies: cytosol from IM-9 cell line, 1.5 nM [3H]-Dexamethasone, 4° C. for 6 hours. A digest of the protocol: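 Radioligand competition using 100 μg IM-9 cell cytosol and 1.5 nM [3H]-dexamethasone, incubated 6 h at 4° C in TES/molybdate buffer, pH 7.4. Filtration on PEI-treated GF/B filters, scintillation counting; nonspecific binding defined with 10 μM triamcinolone.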

For the compound `CC(=O)C1=C(C)NC(C)=C(C(=O)OCc2cccc(C#N)c2)C1c1csc2ncccc12` (stereo not shown) [Example C72, 3-Cyanobenzyl 5-acetyl-2,6-dimethyl-4-(thieno[2,3-b]pyridin-3-yl)-1,4-dihydropyridine-3-carboxylate], the IC50 on human androgen receptor is ≥ 1000 nM; in assay [1] it was < 100 nM.

On to `COC(=O)C1=C(C2CC2)NC(C)=C(C(C)=O)C1c1csc2ncccc12` (stereo not shown) [Example J23, Methyl 5-acetyl-2-cyclopropyl-6-methyl-4-(thieno[2,3-b]pyridin-3-yl)-1,4-dihydropyridine-3-carboxylate], for which the values for the IC50 (at human androgen receptor; in assay [1]) were < 100 nM and 100 to 1000 nM, respectively.

For the compound `CC(=O)C1=C(C)NC(C)=C(C(=O)OCC2CCOCC2)C1c1csc2ccccc12` (stereo not shown) [Example C2, (Tetrahydro-2H-pyran-4-yl)methyl 5-acetyl-4-(benzo[b]thiophen-3-yl)-2,6-dimethyl-1,4-dihydropyridine-3-carboxylate], the IC50 at human androgen receptor is ≥ 1000 nM; in assay [1] it was 100 to 1000 nM.

For `CC(=O)C1=C(C)NC(C)=C(C(=O)OCc2ccccc2)C1c1csc2ccc(F)cc12` (stereo not shown) [Example C41, Benzyl 5-acetyl-4-(5-fluorobenzo[b]thiophen-3-yl)-2,6-dimethyl-1,4-dihydropyridine-3-carboxylate], the IC50 at human androgen receptor was ≥ 1000 nM; in assay [1] it was 100 to 1000 nM.

As to `CC(=O)C1=C(C)NC(C)=C(C(=O)OCc2ccccc2)C1c1csc2ccccc12` (stereo not shown) [Example B6, Benzyl 5-acetyl-4-(benzo[b]thiophen-3-yl)-2,6-dimethyl-1,4-dihydro-pyridine-3-carboxylate], the values for the IC50 (on human androgen receptor; in assay [1]) were ≥ 1000 nM and 100 to 1000 nM, respectively.

As to `COC(=O)C1=C(C)NC(N)=C(C(=O)OCC2CC2)C1c1csc2c(C#N)cc(F)cc12` (stereo not shown) [Example D39, 3-(Cyclopropylmethyl) 5-methyl 2-amino-4-(7-cyano-5-fluorobenzo[b]thiophen-3-yl)-6-methyl-1,4-dihydropyridine-3,5-dicarboxylate], the results for the IC50 (at human androgen receptor; in assay [1]) were 100 to 1000 nM and < 100 nM, respectively.

For the compound `CC(=O)C1=C(C)NC(C)=C(C(=O)OCc2ccc(Br)cc2)C1c1csc2ncccc12` (stereo not shown) [Example C65, 4-bromobenzyl 5-acetyl-2,6-dimethyl-4-(thieno[2,3-b]pyridin-3-yl)-1,4-dihydropyridine-3-carboxylate], the IC50 on human androgen receptor is ≥ 1000 nM; in assay [1], < 100 nM.

For `CC(=O)C1=C(C)NC(C)=C(C(=O)OCc2ccccc2)C1c1csc2ncccc12` (stereo not shown) [Example C39, Benzyl 5-acetyl-2,6-dimethyl-4-(thieno[2,3-b]pyridin-3-yl)-1,4-dihydropyridine-3-carboxylate], the IC50 at human androgen receptor was 100 to 1000 nM; in assay [1], < 100 nM.

Turning to `CC(=O)C1=C(C)NC(C)=C(C(=O)OCc2cccc(Br)c2)C1c1csc2ncccc12` (stereo not shown) [Example C66, 3-bromobenzyl 5-acetyl-2,6-dimethyl-4-(thieno[2,3-b]pyridin-3-yl)-1,4-dihydropyridine-3-carboxylate], the IC50 was 100 to 1000 nM on human androgen receptor and < 100 nM in assay [1].

`COC(=O)C1=C(CO)NC(C2CC2)=C(C(=O)OC)C1c1csc2c(C#N)cccc12` (stereo not shown) [Example C118, Dimethyl 4-(7-cyanobenzo[b]thiophen-3-yl)-2-cyclopropyl-6-(hydroxymethyl)-1,4-dihydropyridine-3,5-dicarboxylate]: the IC50 (on human androgen receptor; in assay [1]) was < 100 nM in each case.

For `COC(=O)C1=C(C)NC(C=O)=C(C(=O)OC)C1c1csc2c(C#N)cccc12` (stereo not shown) [Example C119, Dimethyl 4-(7-cyanobenzo[b]thiophen-3-yl)-2-formyl-6-methyl-1,4-dihydropyridine-3,5-dicarboxylate], the IC50 at human androgen receptor is ≥ 1000 nM; in assay [1], < 100 nM.

For the compound `CC1=C(C(=O)C2CC2)C(c2csc3c(C#N)cccc23)C(C(=O)OCC2CC2)=C(N)N1` (stereo not shown) [Example D31, Cyclopropylmethyl 2-amino-4-(7-cyanobenzo[b]thiophen-3-yl)-5-(cyclopropanecarbonyl)-6-methyl-1,4-dihydropyridine-3-carboxylate], the IC50 was 100 to 1000 nM at human androgen receptor and < 100 nM in assay [1].

Take `CC(=O)C1=C(C)NC(N)=C(C(=O)OCc2cccc(F)c2)C1c1csc2c(C#N)cccc12` (stereo not shown) [Example D32, 3-Fluorobenzyl 5-acetyl-2-amino-4-(7-cyanobenzo[b]thiophen-3-yl)-6-methyl-1,4-dihydropyridine-3-carboxylate]: the results for the IC50 (on human androgen receptor; in assay [1]) were 100 to 1000 nM and < 100 nM, respectively.

Consider `CC(=O)C1=C(C)NC(C)=C(C(=O)OCc2ccccc2)C1c1csc2ccc(Cl)cc12` (stereo not shown) [Example C42, Benzyl 5-acetyl-4-(5-chlorobenzo[b]thiophen-3-yl)-2,6-dimethyl-1,4-dihydropyridine-3-carboxylate], for which the IC50 on human androgen receptor was ≥ 1000 nM; in assay [1], < 100 nM.

Consider `CC(=O)C1=C(C)NC(C)=C(C(=O)OCc2ccccc2Br)C1c1csc2ncccc12` (stereo not shown) [Example C67, 2-bromobenzyl 5-acetyl-2,6-dimethyl-4-(thieno[2,3-b]pyridin-3-yl)-1,4-dihydropyridine-3-carboxylate], for which the IC50 (at human androgen receptor; in assay [1]) was < 100 nM in each case.

Take `CC(=O)C1=C(C)NC(C)=C(C(=O)OCc2ccc(-c3cccnc3)cc2)C1c1csc2ncccc12` (stereo not shown) [Example L2, 4-(pyridin-3-yl)benzyl 5-acetyl-2,6-dimethyl-4-(thieno[2,3-b]pyridin-3-yl)-1,4-dihydropyridine-3-carboxylate]: the figures for the IC50 (at human androgen receptor; in assay [1]) were ≥ 1000 nM and < 100 nM, respectively.

Turning to `CC(=O)C1=C(C)NC(C2CC2)=C(C(=O)OCc2ccncc2)C1c1csc2c(Br)cccc12` (stereo not shown) [Example J41, Pyridin-4-ylmethyl 5-acetyl-4-(7-bromobenzo[b]thiophen-3-yl)-2-cyclopropyl-6-methyl-1,4-dihydropyridine-3-carboxylate], the IC50 (at human androgen receptor; in assay [1]) was < 100 nM in each case.

Turning to `CC(=O)C1=C(C)NC(C)=C(C(=O)OC2CCCCC2)C1c1csc2ncccc12` (stereo not shown) [Example C36, Cyclohexyl 5-acetyl-2,6-dimethyl-4-(thieno[2,3-b]pyridin-3-yl)-1,4-dihydropyridine-3-carboxylate], the IC50 at human androgen receptor is 100 to 1000 nM; in assay [1], < 100 nM.

For the compound `COC(=O)C1=C(C2CC2)NC(C)=C(C(C)=O)C1c1csc2c(Br)cccc12` (stereo not shown) [Example J26, Methyl 5-acetyl-4-(7-bromobenzo[b]thiophen-3-yl)-2-cyclopropyl-6-methyl-1,4-dihydropyridine-3-carboxylate], the IC50 (at human androgen receptor; in assay [1]) was < 100 nM in each case.

As for `CC1=C(C(=O)OCC2CC2)C(c2csc3c(C#N)cccc23)C(C(=O)OCC2CC2)=C(N)N1` (stereo not shown) [Example D46, Bis(cyclopropylmethyl) 2-amino-4-(7-cyanobenzo[b]thiophen-3-yl)-6-methyl-1,4-dihydropyridine-3,5-dicarboxylate], the IC50 on human androgen receptor was ≥ 1000 nM; in assay [1], < 100 nM.
